Assay results as given in US20210038587A1, “METHODS AND COMPOSITIONS FOR TREATING NON-ERK MAPK PATHWAY INHIBITOR-RESISTANT CANCERS” (BIOMED VALLEY DISCOVERIES, INC., priority 2013, published 2021).

Legend:
RKO Parental = assay: Single agent proliferation assay (CellTiter-Glo, 96 h); type: cell-based
Protocol: (§1) For assessment of drug sensitivity in cell-line models of acquired resistance, drug sensitivity of dose-escalated A375 cells and isogenic RKO cells was assessed in 96-hour proliferation assays. […] For the A375 assays Alamar blue (ThermoFisher) 10% (v/v) was added and incubated for 4 h, and fluorescent product was then detected using a BMG FLUOstar.
(§2) Compounds were prepared from DMSO stocks to give the desired final concentrations. The final DMSO concentration was constant at 0.1%. […] CellTiter-Glo® reagent (Promega, Madison, Wis.) was added according to manufacturer's instructions and luminescence detected using the BMG FLUOstar plate reader (BMG Labtech, Ortenberg, Germany).

[1] = test system: RKO MEK1 (Q56P/+) Clone 1; assay: as above; type: cell-based; settings: RKO MEK1 Q56P/+ Cl.1
Protocol: as §1
(§3) RKO MEK1 Q56P Isogenic cells were produced by Horizon Discovery (Cambridge, UK; #HD 106-019) using a recombinant AAV-mediated gene targeting strategy. Briefly, rAAV virus was generated following transfection of the appropriate targeting vector and helper vectors in HEK293T cells, purified using an AAV purification kit (Virapur, San Diego, USA) and titrated using qPCR. Parental homozygous RKO cells (homozygous wild type for MEK1) were then infected with rAAV virus and clones that had integrated the selection cassette were identified by G418 selection and expanded. Correctly targeted clones that were heterozygous for knock-in of the MEK1 Q56P point mutation into a single allele were identified by PCR and sequencing.
as §2

[2] = test system: RKO MEK1 (Q56P/+) Clone 2; assay: as above; type: cell-based; settings: RKO MEK1 Q56P/+ Cl.2
Protocol: as §1, §3, §2

Colo205 = assay: Reverse Phase Protein Analysis (RPPA); type: cell-based, human; settings: % change from DMSO (matched cell line)
Protocol: Control wells were treated with DMSO at 0.1% (v/v) for 6 hours prior to cell lysate generation. Samples were then analyzed using reverse-phase protein microarray technology (Theranostics Health).
Cell lines with common alterations in BRAF and RAS were assayed: BRAF^V600E mutant lines A375, Colo205, and HT29; KRAS^G12C-mutant cell line MIAPACa-2; KRAS^G13D-mutant cell line HCT116; and AN3Ca with atypical HRAS^F82L mutation.

A375 = assay: Reverse Phase Protein Analysis (RPPA); type: cell-based, human; settings: % change from DMSO (matched cell line)
Summary of the method: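 Cells were treated 6 h before lysis, with 0.1% (v/v) DMSO as control. Lysates were analysed by reverse-phase protein microarray. Protein changes are expressed as percentage change from DMSO-treated parental cells.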

O=C(Nc1ccc2[nH]nc(-c3ccncc3)c2c1)[C@@H]1CCN(CC(=O)N2CCN(c3ccc(-c4ncccn4)cc3)CC2)C1 [SCH772984] was tested, and the IC50 (RKO Parental) was 0.04 µM, the IC50 [1] was 0.14 µM and the IC50 [2] was 0.12 µM. The “Avg (4ebp1 T70)” value (Colo205) was −27.51%, the “Avg (Akt S473)” value (Colo205) was −1.74% and the “Avg (Akt)” value (Colo205) was −10.31%. For the same compound, the “Avg (Bad S136)” value (Colo205) was 1.88%, the “Avg (Bad S155)” value (Colo205) was −10.96% and the “Avg (Bak)” value (Colo205) was 4.59%. For the same compound, the “Avg (Bax)” value (Colo205) was −6.44%, the “Avg (Bcl 2)” value (Colo205) was −14.56% and the “Avg (Bcl2 S70)” value (Colo205) was −18.52%. The “Avg (Bcl 2 T56)” value (Colo205) was −6.73%, the “Avg (Bim)” value (Colo205) was 29.22% and the “Avg (CREB S133)” value (Colo205) was −14.56%. For the same compound, the “Avg (Caspase 3 CL D175)” value (Colo205) was 14.08%, the “Avg (Caspase 7 Cl D198)” value (Colo205) was 12.36% and the “Avg (Chk1)” value (Colo205) was 7.49%. For the same compound, the “Avg (Chk1 S345)” value (Colo205) was 1%, the “Avg (Cyclin D1)” value (Colo205) was −36.7% and the “Avg (ERK 1 2)” value (Colo205) was −31.87%. The “Avg (ERK 1 2 T202 Y204)” value (Colo205) was −91.43%, the “Avg (MAK1 S360)” value (Colo205) was 7.54% and the “Avg (Mcl1)” value (Colo205) was −0.14%. The “Avg (Raptor S792)” value (Colo205) was −4.17%, the “Avg (Raptor)” value (Colo205) was −2.2% and the “Avg (Rictor)” value (Colo205) was −19.07%. The “Avg (Stat1)” value (Colo205) was −4.31%, the “Avg (Stat3)” value (Colo205) was −6.1% and the “Avg (bad S112)” value (Colo205) was −29.4%. The “Avg (c Fos)” value (Colo205) was −15.17%, the “Avg (c Myc)” value (Colo205) was −0.64% and the “Avg (mTOR S2448)” value (Colo205) was −9.44%. For the same compound, the “Avg (mTOR S2481)” value (Colo205) was −6.68%, the “Avg (mTOR)” value (Colo205) was −5.62% and the “Avg (p70 S6 Kinase)” value (Colo205) was −2.85%. For the same compound, the “Avg (p90 RSK S380)” value (Colo205) was −62.31%, the “Avg(S6 Ribo Prot S235 236)” value (Colo205) was −94.67% and the “Avg(S6 Ribo Prot S240 244)” value (Colo205) was −95.09%. The “Avg(Tuberin TSC2 Y1571)” value (Colo205) was −1.38%, the “Avg(p70 S6 Kinase S371 S394)” value (Colo205) was −14.59% and the “Avg(p70 S6 Kinase T389 T412)” value (Colo205) was −30.4%. For the same compound, the “Avg (4ebp1 T70)” value (A375) was −31.75%, the “Avg (Akt S473)” value (A375) was 58.13% and the “Avg (Akt)” value (A375) was −23.26%. The “Avg (Bad S136)” value (A375) was 5.32%, the “Avg (Bad S155)” value (A375) was −13.86% and the “Avg (Bak)” value (A375) was −2.37%. For the same compound, the “Avg (Bax)” value (A375) was −17.32%, the “Avg (Bcl 2)” value (A375) was −18.53% and the “Avg (Bcl2 S70)” value (A375) was −12.91%. For the same compound, the “Avg (Bcl 2 T56)” value (A375) was −19.55%, the “Avg (Bim)” value (A375) was 17.52% and the “Avg (CREB S133)” value (A375) was −1.55%. For the same compound, the “Avg (Caspase 3 CL D175)” value (A375) was −9.87%, the “Avg (Caspase 7 Cl D198)” value (A375) was −6% and the “Avg (Chk1)” value (A375) was 2.83%. The “Avg (Chk1 S345)” value (A375) was −10.59%, the “Avg (Cyclin D1)” value (A375) was −84.05% and the “Avg (ERK 1 2)” value (A375) was −21.65%. For the same compound, the “Avg (ERK 1 2 T202 Y204)” value (A375) was −90.63%, the “Avg (MAK1 S360)” value (A375) was 0.97% and the “Avg (Mcl1)” value (A375) was 2.11%. For the same compound, the “Avg (Raptor S792)” value (A375) was −6.89%, the “Avg (Raptor)” value (A375) was −11.66% and the “Avg (Rictor)” value (A375) was −22.13%. For the same compound, the “Avg (Stat1)” value (A375) was −6.01%, the “Avg (Stat3)” value (A375) was −1.42% and the “Avg (bad S112)” value (A375) was −71.44%. For the same compound, the “Avg (c Fos)” value (A375) was −12.51%, the “Avg (c Myc)” value (A375) was 1.86% and the “Avg (mTOR S2448)” value (A375) was −26.17%. For the same compound, the “Avg (mTOR S2481)” value (A375) was −15.82%, the “Avg (mTOR)” value (A375) was −5.18% and the “Avg (p70 S6 Kinase)” value (A375) was −17.66%. The “Avg (p90 RSK S380)” value (A375) was −72.44%, the “Avg(S6 Ribo Prot S235 236)” value (A375) was −94.71% and the “Avg(S6 Ribo Prot S240 244)” value (A375) was −91.78%. The “Avg(Tuberin TSC2 Y1571)” value (A375) was −13.7%, the “Avg(p70 S6 Kinase S371 S394)” value (A375) was −28.72% and the “Avg(p70 S6 Kinase T389 T412)” value (A375) was −42.73%.
In the case of Cc1cnc(Nc2ccc(F)cc2Cl)nc1-c1c[nH]c(C(=O)N[C@H](CO)c2cccc(Cl)c2)c1 [Vx-11e], the “Avg (4ebp1 T70)” value (Colo205) is reported as −43.71%, the “Avg (Akt S473)” value (Colo205) is reported as −10.96% and the “Avg (Akt)” value (Colo205) is reported as −12.51%. The “Avg (Bad S136)” value (Colo205) was −1.01%, the “Avg (Bad S155)” value (Colo205) was −9.72% and the “Avg (Bak)” value (Colo205) was −2.79%. For the same compound, the “Avg (Bax)” value (Colo205) was −9.16%, the “Avg (Bcl 2)” value (Colo205) was −14.09% and the “Avg (Bcl2 S70)” value (Colo205) was −20.82%. For the same compound, the “Avg (Bcl 2 T56)” value (Colo205) was −12.02%, the “Avg (Bim)” value (Colo205) was 34.1% and the “Avg (CREB S133)” value (Colo205) was −10.64%. The “Avg (Caspase 3 CL D175)” value (Colo205) was −2.67%, the “Avg (Caspase 7 Cl D198)” value (Colo205) was 0.03% and the “Avg (Chk1)” value (Colo205) was −9.16%. For the same compound, the “Avg (Chk1 S345)” value (Colo205) was 13.12%, the “Avg (Cyclin D1)” value (Colo205) was −39.79% and the “Avg (ERK 1 2)” value (Colo205) was −12.32%. For the same compound, the “Avg (ERK 1 2 T202 Y204)” value (Colo205) was 98.48%, the “Avg (MAK1 S360)” value (Colo205) was 6.22% and the “Avg (Mcl1)” value (Colo205) was −10.64%. For the same compound, the “Avg (Raptor S792)” value (Colo205) was 0.2%, the “Avg (Raptor)” value (Colo205) was −0.05% and the “Avg (Rictor)” value (Colo205) was 1.65%. For the same compound, the “Avg (Stat1)” value (Colo205) was −6.1%, the “Avg (Stat3)” value (Colo205) was −7.96% and the “Avg (bad S112)” value (Colo205) was −30.28%. For the same compound, the “Avg (c Fos)” value (Colo205) was −19.34%, the “Avg (c Myc)” value (Colo205) was −7.42% and the “Avg (mTOR S2448)” value (Colo205) was −8.52%. The “Avg (mTOR S2481)” value (Colo205) was −9.43%, the “Avg (mTOR)” value (Colo205) was 3.62% and the “Avg (p70 S6 Kinase)” value (Colo205) was −3.42%. For the same compound, the “Avg (p90 RSK S380)” value (Colo205) was −58.6%, the “Avg(S6 Ribo Prot S235 236)” value (Colo205) was −93.04% and the “Avg(S6 Ribo Prot S240 244)” value (Colo205) was −94.89%. The “Avg(Tuberin TSC2 Y1571)” value (Colo205) was −9.45%, the “Avg(p70 S6 Kinase S371 S394)” value (Colo205) was −13.64% and the “Avg(p70 S6 Kinase T389 T412)” value (Colo205) was −28%. The “Avg (4ebp1 T70)” value (A375) was 23.33%, the “Avg (Akt S473)” value (A375) was 93.85% and the “Avg (Akt)” value (A375) was −30.34%. For the same compound, the “Avg (Bad S136)” value (A375) was 5.06%, the “Avg (Bad S155)” value (A375) was −6.3% and the “Avg (Bak)” value (A375) was 0.65%. The “Avg (Bax)” value (A375) was −5.05%, the “Avg (Bcl 2)” value (A375) was −9.93% and the “Avg (Bcl2 S70)” value (A375) was −4.02%. For the same compound, the “Avg (Bcl 2 T56)” value (A375) was −7.53%, the “Avg (Bim)” value (A375) was 12.32% and the “Avg (CREB S133)” value (A375) was −15.8%. The “Avg (Caspase 3 CL D175)” value (A375) was −9.27%, the “Avg (Caspase 7 Cl D198)” value (A375) was −7.62% and the “Avg (Chk1)” value (A375) was −0.86%. The “Avg (Chk1 S345)” value (A375) was 0.56%, the “Avg (Cyclin D1)” value (A375) was −85.46% and the “Avg (ERK 1 2)” value (A375) was −5.39%. For the same compound, the “Avg (ERK 1 2 T202 Y204)” value (A375) was 128.93%, the “Avg (MAK1 S360)” value (A375) was −7.63% and the “Avg (Mcl1)” value (A375) was 1.6%. For the same compound, the “Avg (Raptor S792)” value (A375) was −0.86%, the “Avg (Raptor)” value (A375) was −12.7% and the “Avg (Rictor)” value (A375) was −8.16%. For the same compound, the “Avg (Stat1)” value (A375) was 0.23%, the “Avg (Stat3)” value (A375) was 1.71% and the “Avg (bad S112)” value (A375) was −69.29%. The “Avg (c Fos)” value (A375) was −13.65%, the “Avg (c Myc)” value (A375) was −0.97% and the “Avg (mTOR S2448)” value (A375) was −21.66%. For the same compound, the “Avg (mTOR S2481)” value (A375) was −2.9%, the “Avg (mTOR)” value (A375) was −3.31% and the “Avg (p70 S6 Kinase)” value (A375) was −6.42%. For the same compound, the “Avg (p90 RSK S380)” value (A375) was −65.25%, the “Avg(Tuberin TSC2 Y1571)” value (A375) was −3.55% and the “Avg(p70 S6 Kinase S371 S394)” value (A375) was −17.32%. For the same compound, the “Avg(p70 S6 Kinase T389 T412)” value (A375) was −25.54%.
